Target: BTK (Homo sapiens, UniProt Q06187)
Test: Omnia assay for potency assessment against BTK
Format: biochemical
Settings: 30 min pre-incubation; read-out: IC50_APP BTK
Text: B. Omnia Assay Protocol for Potency Assessment Against BTK
Below describes the protocol using EGFR-WT and EGFR-T790M/L858R and the protocol BTK-optimized reagent conditions then follow.
The mechanics of the assay platform are best described by the vendor (Invitrogen, Carlsbad, Calif.) on their website at the following URL: http://www.invitrogen.com/content.cfm?pageid=11338 or http://www.invitrogen.com/site/us/en/home/Products-and-Services/Applications/Drug-Discovery/Target-and-Lead-Identification-and-Validation/KinaseBiology/KB-Misc/Biochemical-Assays/Omnia-Kinase-Assays.html.
Briefly, 10× stocks of EGFR-WT (PV3872) from Invitrogen and EGFR-T790M/L858R (40350) from BPS Bioscience, San Diego, Calif., 1.13×ATP (AS001A) and appropriate Tyr-Sox conjugated peptide substrates (KCZ1001) were prepared in 1× kinase reaction buffer consisting of 20 mM Tris, pH 7.5, 5 mM MgCl2, 1 mM EGTA, 5 mM β-glycerophosphate, 5% glycerol (10× stock, KB002A) and 0.2 mM DTT (DS001A). 5 μL of each enzyme were pre-incubated in a Corning (#3574) 384-well, white, non-binding surface microtiter plate (Corning, N.Y.) for 30 min. at 27° C. with a 0.5 μL volume of 50% DMSO and serially diluted compounds prepared in 50% DMSO. Kinase reactions were started with the addition of 45 μL of the ATP/Tyr-Sox peptide substrate mix and monitored every 30-90 seconds for 60 minutes at λex360/λem485 in a Synergy^4 plate reader from BioTek (Winooski, Vt.). At the conclusion of each assay, progress curves from each well were examined for linear reaction kinetics and fit statistics (R^2, 95% confidence interval, absolute sum of squares). Initial velocity (0 minutes to ˜30 minutes) from each reaction was determined from the slope of a plot of relative fluorescence units vs time (minutes) and then plotted against inhibitor concentration to estimate IC50 from log [Inhibitor] vs Response, Variable Slope model in GraphPad Prism from GraphPad Software (San Diego, Calif.).
The modified BTK-optimized reagent conditions for the above protocol are:
[BTK]=5 nM, [ATP]=[…], [Y5-Sox]=[…] (ATP KMapp˜[…]).
The reported IC50_APP and IC50 values are in units of nM.

Sequence of BTK (Q06187 whole entry): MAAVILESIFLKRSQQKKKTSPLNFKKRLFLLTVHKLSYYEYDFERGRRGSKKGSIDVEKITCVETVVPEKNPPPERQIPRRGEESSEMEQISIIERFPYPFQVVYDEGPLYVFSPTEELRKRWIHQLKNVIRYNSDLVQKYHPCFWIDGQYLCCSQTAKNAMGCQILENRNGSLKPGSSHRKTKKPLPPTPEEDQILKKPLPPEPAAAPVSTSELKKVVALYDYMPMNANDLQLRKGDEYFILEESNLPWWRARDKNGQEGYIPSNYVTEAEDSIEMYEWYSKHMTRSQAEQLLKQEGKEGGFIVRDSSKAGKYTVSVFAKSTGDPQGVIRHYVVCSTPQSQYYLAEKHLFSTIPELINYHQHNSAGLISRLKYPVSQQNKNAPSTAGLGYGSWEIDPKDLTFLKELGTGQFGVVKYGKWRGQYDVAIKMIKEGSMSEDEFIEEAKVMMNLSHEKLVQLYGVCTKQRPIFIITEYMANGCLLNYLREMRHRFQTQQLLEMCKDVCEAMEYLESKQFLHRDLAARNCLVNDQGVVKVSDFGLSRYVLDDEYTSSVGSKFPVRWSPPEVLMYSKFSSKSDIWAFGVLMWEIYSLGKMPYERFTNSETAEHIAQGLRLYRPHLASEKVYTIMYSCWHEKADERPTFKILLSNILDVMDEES

## C=CC(=O)N1CCC(Sc2nc(Nc3ncc(C#N)s3)cc(N3CCN(C)CC3)n2)CC1 [II-2, 2-(2-(1-Acryloylpiperidin-4-ylthio)-6-(4-methylpiperazin-1-yl)pyrimidin-4-ylamino)thiazole-5-carbonitrile]
  IC50: 0.572 nM

From patent US10662195B2, “Protein kinase conjugates and inhibitors” (Celgene Avilomics Research, Inc., priority 2009, dated 2020)
